Experimental data from patent publication US7157430B2, “(Substituted)acyl dipeptidyl inhibitors of the ICE/CED-3 family of cysteine proteases” (Idun Pharmaceuticals, Inc., priority 1998, dated 2007).
Read-outs that look alike come from different tables or passages of the source. Where a SMILES comes first, the peptide text is derived from it. The star is where a group is joined. Hydrocinnamoyl = O=C(CCc1ccccc1)*

Columns and labels:
Type in all cases: biochemical
[1] = biological target: T1, MCH-2 (Homo sapiens, UniProt P55212); assay: Fluorescence enzyme assay, IC50 determination, Mch2
T1 sequence (P55212 24-179 limits assumed): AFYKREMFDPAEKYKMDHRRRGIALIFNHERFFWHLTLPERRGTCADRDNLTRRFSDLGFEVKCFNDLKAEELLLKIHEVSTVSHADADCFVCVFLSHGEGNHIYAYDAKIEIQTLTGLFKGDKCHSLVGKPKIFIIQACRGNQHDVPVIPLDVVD
T1 sequence (P55212 194-293 limits assumed): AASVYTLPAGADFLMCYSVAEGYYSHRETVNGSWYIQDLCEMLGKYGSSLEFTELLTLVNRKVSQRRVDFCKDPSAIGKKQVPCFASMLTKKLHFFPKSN
Description: (§1) Fluorescence enzyme assays detecting the activity of the compounds of Formula 1 utilizing the recombinant ICE and CPP32 enzymes are performed essentially according to Thornberry et al. (Nature, 356:768:774 (1992)) and Nicholson et al. (Nature, 376:37–43 (1995)) respectively, (herein incorporated by reference) in 96 well microtiter plates. The substrate is Acetyl-Tyr-Val-Ala-Asp-amino-4-methylcoumarin (AMC) for the ICE assay and Acetyl-Asp-Glu-Val-Asp-amino-4-methylcoumarin for the CPP32, Mch2, Mch3 and Mch5 assays. Enzyme reactions are run in ICE buffer (25 mM HEPES, 1 mM EDTA, 0.1% CHAPS, 10% sucrose, pH 7.5) containing 2 mM DTT at room temperature in duplicate.
(§2) The enzyme and the compound of Formula I to be assayed are allowed to preincubate in the microtitre plate wells for 30 minutes at room temperature prior to the addition of substrate to initiate the reaction. Fluorescent AMC product formation is monitored for one hour at room temperature by measuring the fluorescence emission at 460 nm using an excitation wavelength of 360 nm. The fluorescence change in duplicate (control) wells are averaged and the mean values are plotted as a function of inhibitor concentration to determine the inhibitor concentration producing 50% inhibition (IC50). The results of this assay are set forth below in Table 1 and in Table 3 (for Table 3, see Examples 11 through 52).
(§3) The reference compound for this assay was Cbz-ValAlaAsp-H and the values are denoted in Table 1 as “Reference”.

[2] = biological target: T2, CPP32 (Homo sapiens, UniProt P42574); assay: Fluorescence enzyme assay, IC50 determination, CPP32
T2 sequence (P42574 29-175 limits assumed): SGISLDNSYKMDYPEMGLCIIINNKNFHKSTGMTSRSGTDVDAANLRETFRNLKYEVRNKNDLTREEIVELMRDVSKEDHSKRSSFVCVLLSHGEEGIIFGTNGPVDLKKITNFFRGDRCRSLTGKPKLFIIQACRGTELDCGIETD
T2 sequence (P42574 176-277 limits assumed): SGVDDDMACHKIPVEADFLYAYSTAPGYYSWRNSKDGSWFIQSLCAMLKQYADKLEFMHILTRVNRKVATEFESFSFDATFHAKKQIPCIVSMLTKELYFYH
Description: as §1, §2, §3

[3] = biological target: T3, MCH-3 (Homo sapiens, UniProt P55210); assay: Fluorescence enzyme assay, IC50 determination, Mch3
T3 sequence (P55210 24-198 limits assumed): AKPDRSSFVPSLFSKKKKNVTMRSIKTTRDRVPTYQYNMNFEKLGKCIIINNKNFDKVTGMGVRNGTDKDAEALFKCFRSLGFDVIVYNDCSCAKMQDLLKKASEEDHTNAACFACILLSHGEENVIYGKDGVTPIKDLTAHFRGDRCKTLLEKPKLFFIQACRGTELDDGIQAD
T3 sequence (P55210 207-303 limits assumed): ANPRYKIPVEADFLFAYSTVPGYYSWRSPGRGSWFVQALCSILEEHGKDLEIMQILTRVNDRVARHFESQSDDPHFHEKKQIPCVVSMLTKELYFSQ
Description: as §1, §2, §3

[4] = biological target: T4, mICE (Mus musculus, UniProt P29452); assay: Fluorescence enzyme assay, IC50 determination, ICE
T4 sequence (P29452 123-296 limits assumed): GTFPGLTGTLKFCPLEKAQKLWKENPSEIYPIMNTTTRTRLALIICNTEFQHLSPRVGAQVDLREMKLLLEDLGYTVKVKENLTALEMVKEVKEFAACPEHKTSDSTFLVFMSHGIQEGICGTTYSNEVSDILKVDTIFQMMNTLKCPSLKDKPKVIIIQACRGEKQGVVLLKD
T4 sequence (P29452 315-402 limits assumed): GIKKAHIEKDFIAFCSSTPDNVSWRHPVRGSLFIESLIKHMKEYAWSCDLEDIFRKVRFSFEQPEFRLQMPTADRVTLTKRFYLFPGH
Description: as §1, §2, §3

[5] = biological target: MCH-5 (Homo sapiens, UniProt Q14790); assay: Fluorescence enzyme assay, IC50 determination, Mch5
Description: as §1, §2, §3

[6] = Ac-DEVD-AMC substrate, 30 min preincubation, room temperature, read-out: MCH-2 IC50
[7] = recombinant enzyme, Ac-DEVD-AMC substrate, 30 min preincubation, room temperature, read-out: CPP32 IC50
[8] = Ac-DEVD-AMC substrate, 30 min preincubation, room temperature, read-out: MCH-3 IC50
[9] = recombinant enzyme, Ac-YVAD-AMC substrate, 30 min preincubation, room temperature, read-out: mICE IC50
[10] = Ac-DEVD-AMC substrate, 30 min preincubation, room temperature, read-out: MCH-5 IC50
[11] = Table 3, method of Preparation 3A, read-out: MCH2 I50
[12] = Table 3, method of Preparation 3A, read-out: CPP32 I50
[13] = Table 3, method of Preparation 3A, read-out: MCH3 I50
[14] = Table 3, method of Preparation 3A, read-out: mICE I50
[15] = Table 3, method of Preparation 3A, read-out: MCH5 I50

MCH-5, sequence (Q14790 217-374 limits assumed, species assumed): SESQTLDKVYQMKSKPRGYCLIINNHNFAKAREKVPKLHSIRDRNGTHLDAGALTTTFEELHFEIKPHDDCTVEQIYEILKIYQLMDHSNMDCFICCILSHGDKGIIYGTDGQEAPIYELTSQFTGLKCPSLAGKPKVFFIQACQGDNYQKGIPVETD
MCH-5, sequence (Q14790 385-479 limits assumed, species assumed): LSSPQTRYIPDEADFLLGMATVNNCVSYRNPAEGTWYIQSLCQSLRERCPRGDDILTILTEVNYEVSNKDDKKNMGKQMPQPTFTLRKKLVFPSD

SMILES	IC50 [1, 6] [nM]	IC50 [2, 7] [nM]	IC50 [3, 8] [nM]	IC50 [4, 9] [nM]	IC50 [5, 10] [nM]	IC50 [1, 11] [nM]	IC50 [2, 12] [nM]	IC50 [3, 13] [nM]	IC50 [4, 14] [nM]	IC50 [5, 15] [nM]
CC(C)C[C@H](NC(=O)COc1cccc2ccccc12)C(=O)N[C@H](C=O)CC(=O)O [Example 1, (3S)-3-[N-((1-Naphthyloxy)Acetyl)Leucinyl]Amino-4-Oxobutanoic Acid]	995	141	1560	535	680	–	–	–	–	–
CC(C)[C@H](NC(=O)COc1cccc2ccccc12)C(=O)N[C@H](C=O)CC(=O)O [Example 2, (3S)-3-[N-((1-Naphthyloxy)Acetyl)Valinyl]Amino-4-Oxobutanoic Acid]	> 10000	355	2100	336	1200	–	–	–	–	–
CC(C)[C@H](NC(=O)COc1ccc2ccccc2c1C(=O)O)C(=O)N[C@H](C=O)CC(=O)O [Example 5, (3S)-3-[N-((1′-Carboxy-2′-Naphthyloxy)Acetyl)Valinyl]Amino-4-Oxobutanoic Acid]	3610	401	10900	2960	733	–	–	–	–	–
CC(C)[C@H](NC(=O)COc1c(C(=O)O)ccc2ccccc12)C(=O)N[C@H](C=O)CC(=O)O [Example 6, (3S)-3-[N-((2′-Carboxy-1′-Naphthyloxy)Acetyl)Valinyl]Amino-4-Oxobutanoic Acid]	1430	54	1650	385	48	–	–	–	–	–
CC(C)[C@H](NC(=O)COc1cc2ccccc2cc1C(=O)O)C(=O)N[C@H](C=O)CC(=O)O [Example 7, (3S)-3-[N-((3′-Carboxy-2′-Naphthyloxy)Acetyl)Valinyl]Amino-4-Oxobutanoic Acid]	1900	731	17000	1890	200	–	–	–	–	–
CC(C)C[C@H](NC(=O)COc1cccc2c1OC(C)(C)C2)C(=O)N[C@H](C=O)CC(=O)O [Example 10, (3S)-3-[N-((2,3-Dihydro-2,2-Dimethyl-Benzofuranyloxy)Acetyl)Leucinyl]Amino-4-Oxobutanoic Acid]	13100	241	2320	6340	6340	–	–	–	–	–
CC(C)C[C@H](NC(=O)CCc1cccc2ccccc12)C(=O)N[C@H](C=O)CC(=O)O [Example 11]	–	–	–	–	–	4190	1590	8780	1860	12200
CC(C)C[C@H](NC(=O)C(C)Oc1cccc2cc(Br)ccc12)C(=O)N[C@H](C=O)CC(=O)O (some centres unmarked) [Example 15]	–	–	–	–	–	13800	4810	32400	–	29100
CC(C)C[C@H](NC(=O)CCC(=O)c1cccc2ccccc12)C(=O)N[C@H](C=O)CC(=O)O [Example 19]	–	–	–	–	–	11800	967	11300	408	11200
CC(C)C[C@H](NC(=O)C(C)CC(=O)c1cccc2ccccc12)C(=O)N[C@H](C=O)CC(=O)O (some centres unmarked) [Example 20]	–	–	–	–	–	24900	9880	29800	4550	3250
CC(C)C[C@H](NC(=O)CCOc1cccc2ccccc12)C(=O)N[C@H](C=O)CC(=O)O [Example 22]	–	–	–	–	–	305	59	1370	–	9810
Cc1ccc2ccccc2c1OCC(=O)N[C@@H](CC(C)C)C(=O)N[C@H](C=O)CC(=O)O [Example 26]	–	–	–	–	–	32400	375	4160	843	4140
COc1ccc(OCC(=O)N[C@@H](CC(C)C)C(=O)N[C@H](C=O)CC(=O)O)c2ccccc12 [Example 27]	–	–	–	–	–	22600	263	4080	831	1450
CC(C)C[C@H](NC(=O)COc1ccc(Cl)c2ccccc12)C(=O)N[C@H](C=O)CC(=O)O [Example 28]	–	–	–	–	–	12000	231	3380	429	1690
CC(C)C[C@H](NC(=O)CCc1ccccc1)C(=O)N[C@H](C=O)CC(=O)O [Example 35] (Hydrocinnamoyl-Leu-Asp-aldehyde)	–	–	–	–	–	–	9740	> 10000	> 10000	> 10000

Second part, the compound after the results:

IC50 [1, 6] [nM]	IC50 [2, 7] [nM]	IC50 [3, 8] [nM]	IC50 [4, 9] [nM]	IC50 [5, 10] [nM]	IC50 [1, 11] [nM]	IC50 [2, 12] [nM]	IC50 [3, 13] [nM]	IC50 [4, 14] [nM]	IC50 [5, 15] [nM]	SMILES
37	13	1320	33	7.6	–	–	–	–	–	CC(C)C[C@H](NC(=O)CNc1cccc2ccccc12)C(=O)N[C@H](C=O)CC(=O)O [Example 8, (3S)-3-[N-((1-Naphthylamino)Acetyl)Leucinyl]Amino-4-Oxobutanoic Acid]
–	–	–	–	–	846	139	1950	597	821	CC(C)C[C@H](NC(=O)COc1cccc2ccccc12)C(=O)N[C@H](C=O)CC(=O)O [Example 12]
–	–	–	–	–	18600	944	8870	2570	> 10000	CC(C)C[C@H](NC(=O)COc1ccc2ccccc2c1)C(=O)N[C@H](C=O)CC(=O)O [Example 13]
–	–	–	–	–	1430	195	1740	2750	7420	CC(C)C[C@H](NC(=O)CSc1cccc2ccccc12)C(=O)N[C@H](C=O)CC(=O)O [Example 16]
–	–	–	–	–	3160	269	2520	792	11000	CC(C)C[C@H](NC(=O)CSc1ccc2ccccc2c1)C(=O)N[C@H](C=O)CC(=O)O [Example 17]
–	–	–	–	–	14500	2760	18200	1800	> 50000	CC(C)C[C@H](NC(=O)CCCc1ccc2ccccc2c1)C(=O)N[C@H](C=O)CC(=O)O [Example 18]
–	–	–	–	–	10300	1420	7430	543	5230	CC(C)C[C@H](NC(=O)CCC(=O)c1ccc2ccccc2c1)C(=O)N[C@H](C=O)CC(=O)O [Example 21]
–	–	–	–	–	5900	910	9650	1320	15200	CC(C)C[C@H](NC(=O)CCOc1ccc2ccccc2c1)C(=O)N[C@H](C=O)CC(=O)O [Example 23]
–	–	–	–	–	2720	412	3600	563	16300	CC(C)C[C@H](NC(=O)CCSc1cccc2ccccc12)C(=O)N[C@H](C=O)CC(=O)O [Example 24]
–	–	–	–	–	1620	837	5890	611	15000	CC(C)C[C@H](NC(=O)CCSc1ccc2ccccc2c1)C(=O)N[C@H](C=O)CC(=O)O [Example 25]
